Laboratory results reported in US9242984B2, “Pyrazolyl derivatives as Syk inhibitors” (Merck Sharp & Dohme Corp., priority 2012, dated 2016).
pIC50: −log10 of the molar value.

Target: T1, recombinant human Syk (GST-hSyk fusion protein) (Homo sapiens, UniProt P43405)
T1 construct: purchased Carna Biosciences 08-176
Assay: Homogeneous Time-Resolved Fluorescence (HTRF) assay for the recombinant human Syk enzyme
Type: biochemical
Details: 10-dose titration, 25 μM ATP; read-out: rhSYK IC50
Method in brief: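 GST-hSyk (5 pM) preincubated 10 min with compound (0.1% DMSO) in 15 mM Tris-HCl pH 7.5, 2 mM DTT; reaction started with 250 nM biotinylated peptide, 5 mM Mg, 25 μM ATP, 45 min, room temperature. EDTA quench, Eu-anti-phosphotyrosine/SA-APC HTRF read after 30 min; IC50 from 10-dose titration (10 μM–0.508 nM), four-parameter fit.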

| pIC50 | Structure (SMILES) |
| --- | --- |
| 8.60 | Cc1cc(Nc2nccc(C(F)F)n2)cc(-c2cnn(C3CCCC(C)(O)C3(C)O)c2)c1 (centres unmarked) [Example 22.11, 3-[4-(3-{[4-(difluoromethyl)pyrimidin-2-yl]amino}-5-methylphenyl)-1H-pyrazol-1-yl]-1,2-dimethylcyclohexane-1,2-diol] |

Same assay, conditions: IC50 class; 10-dose titration, 25 μM ATP; read-out: rhSYK Activity

| pIC50 | Structure (SMILES) |
| --- | --- |
| ≥ 7.00 | Cc1cc(Nc2nccc(C(F)F)n2)cc(-c2cnn(C3CCCC(C)(O)C3(C)O)c2)c1 (centres unmarked) [Example 22.11, 3-[4-(3-{[4-(difluoromethyl)pyrimidin-2-yl]amino}-5-methylphenyl)-1H-pyrazol-1-yl]-1,2-dimethylcyclohexane-1,2-diol] |
| ≥ 7.00 | Cc1cc(Nc2nccc(C(F)F)n2)cc(-c2cnn(Cc3cc[nH]c(=O)c3)c2)c1 [Example 2.72, 4-{[4-(3-{[4-(difluoromethyl)pyrimidin-2-yl]amino}-5-methylphenyl)-1H-pyrazol-1-yl]methyl}pyridin-2(1H)-one] |
| ≥ 7.00 | Cc1cc(Nc2nccc(C(F)(F)F)n2)cc(-c2cnn(C[C@@H](O)C(=O)O)c2)c1 [Example 5.16, (2R)-2-hydroxy-3-[4-(3-methyl-5-{[4-(trifluoromethyl)-pyrimidin-2-yl]amino}phenyl)-1H-pyrazol-1-yl]propanoic acid] |
| ≥ 7.00 | Cc1cc(Nc2nccc(C(F)(F)F)n2)cc(-c2cnn(CC3CCCO3)c2)c1 (centres unmarked) [Example 13.3, N-{3-methyl-5-[1-(tetra-hydrofuran-2-ylmethyl)-1H-pyrazol-4-yl]phenyl}-4-(trifluoro-methyl)-pyrimidin-2-amine] |
| 6.00 to 7.00 | COC(=O)C1CCC(n2cc(-c3cc(C)cc(Nc4nccc(C(F)(F)F)n4)c3)cn2)c2ccccc21 (centres unmarked) [Example 3.52, methyl 4-[4-(3-methyl-5-{[4-(trifluoromethyl)pyrimidin-2-yl]amino}-phenyl)-1H-pyrazol-1-yl]-1,2,3,4-tetrahydronaphthalene-1-carboxylate] |
| ≥ 7.00 | Cc1cc(Nc2nccc(C(F)(F)F)n2)cc(-c2cnn(C[C@@]3(O)C[C@@H](C)O[C@@H](C)C3)c2)c1 [Example 12.8, meso (2R,4S,6S)-2,6-dimethyl-4-{[4-(3-methyl-5-{[4-(trifluoro-methyl)pyrimidin-2-yl]amino}phenyl)-1H-pyrazol-1-yl]methyl}-tetrahydro-2H-pyran-4-ol] |
| ≥ 7.00 | Cc1cc(Nc2nccc(C(F)(F)F)n2)cc(-c2cnn(CCCC(=O)O)c2)c1 [Example 3.50, 4-[4-(3-methyl-5-{[4-(trifluoromethyl)-pyrimidin-2-yl]amino}-phenyl)-1H-pyrazol-1-yl]butanoic acid] |
| ≥ 7.00 | CCOC(=O)C(C)n1cc(-c2cc(C)cc(Nc3nccc(C(F)(F)F)n3)c2)cn1 (centres unmarked) [Example 3.30, ethyl 2-[4-(3-methyl-5-{[4-(trifluoromethyl)-pyrimidin-2-yl]amino}phenyl)-1H-pyrazol-1-yl]propanoate] |
| 6.00 to 7.00 | Cc1cc(Nc2cc(C(F)(F)F)ccn2)nc(-c2ccnn2C)n1 [Example 1.45, 6-methyl-2-(1-methyl-1H-pyrazol-5-yl)-N-[4-(trifluoro-methyl)pyridin-2-yl]pyrimidin-4-amine] |
| ≥ 7.00 | COc1ccnc(Nc2cc(C)cc(-c3cnn(C[C@@H](O)C(=O)O)c3)c2)n1 [Example 11.8, (2R)-2-hydroxy-3-(4-{3-[(4-methoxy-pyrimidin-2-yl)-amino]-5-methyl-phenyl}-1H-pyrazol-1-yl)propanoic acid] |
| ≥ 7.00 | Cc1cc(Nc2nccc(C(F)(F)F)n2)cc(-c2cnn(C[C@@H](O)C(N)=O)c2)c1 [Example 7.3, (2R)-2-hydroxy-3-[4-(3-methyl-5-{[4-(trifluorometh-yl)pyrimidin-2-yl]amino}-phenyl)-1H-pyrazol-1-yl]propanamide] |
| ≥ 7.00 | Cc1cc(Nc2nccc(C(F)(F)F)n2)cc(-c2cnn([C@@H](C)[C@](C)(O)CO)c2)c1 (single isomer, unassigned) [Example 21.10, 2-methyl-3-[4-(3-methyl-5-{[4-(trifluoromethyl)pyrimidin-2-yl]amino}phenyl)-1H-pyrazol-1-yl]butane-1,2-diol] |
| ≥ 7.00 | Cc1cc(Nc2cc(C(F)(F)F)ccn2)nc(-c2cnn(CCC(=O)O)c2)c1 [Example 1.21, 3-[4-(4-methyl-6-{[4-(trifluoromethyl)pyridin-2-yl]amino]pyridin-2-yl)-1H-pyrazol-1-yl)propanoic acid] |
